Test results published in PubChem BioAssay AID256 (DTP/NCI, 2004).
Where “and” joins values, the source holds several entries; their conditions need not be identical. Equal entries are not always repeated. Toxic doses and inconclusive results are not listed. How the source made its calls: active means survival T/C of 150% or more; inactive means T/C below 125% in these data.

Test system: CD2F1 mice, L1210 leukemia ip, survival T/C
Experiment: NCI In Vivo Anticancer Drug Screen. Data for tumor model L1210 Leukemia (intraperitoneal) in CD2F1 (CDF1) mice
Settings: higher = longer survival
How it was run: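 Vehicle-treated tumor-bearing mice served as controls (C) for compound-treated mice (T). Reported figure is T divided by C.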

[1] = endpoint: mean survival time, dose: 50.0 mg/kg/injection, schedule: Q01DX009 (ip), vehicle: saline with Tween-80
[2] = endpoint: mean survival time, dose: 100.0 mg/kg/injection, schedule: Q01DX001 (ip), vehicle: saline
[3] = endpoint: mean survival time, dose: 100.0 mg/kg/injection, schedule: Q01DX009 (ip), vehicle: saline with Tween-80
[4] = endpoint: mean survival time, dose: 200.0 mg/kg/injection, schedule: Q01DX001 (ip), vehicle: saline
[5] = endpoint: mean survival time, dose: 200.0 mg/kg/injection, schedule: Q01DX009 (ip), vehicle: saline with Tween-80
[6] = endpoint: mean survival time, dose: 100.0 mg/kg/injection, schedule: Q04DX003 (ip), vehicle: saline
[7] = endpoint: mean survival time, dose: 200.0 mg/kg/injection, schedule: Q04DX003 (ip), vehicle: saline
[8] = endpoint: mean survival time, dose: 100.0 mg/kg/injection, schedule: Q04DX003 (ip), vehicle: saline with Tween-80
[9] = endpoint: mean survival time, dose: 200.0 mg/kg/injection, schedule: Q04DX003 (ip), vehicle: saline with Tween-80
[10] = endpoint: mean survival time, dose: 400.0 mg/kg/injection, schedule: Q04DX003 (ip), vehicle: saline with Tween-80
[11] = endpoint: mean survival time, dose: 100.0 mg/kg/injection, schedule: Q01DX001 (ip), vehicle: saline with Tween-80
[12] = endpoint: mean survival time, dose: 200.0 mg/kg/injection, schedule: Q01DX001 (ip), vehicle: saline with Tween-80
[13] = endpoint: mean survival time, dose: 400.0 mg/kg/injection, schedule: Q01DX009 (ip), vehicle: saline with Tween-80

Measured: T/C

CCO/N=C(\N)c1ccccc1
inactive: [1] 106 % of control | [2] 111 % of control | [3] 98 % of control | [4] 108 % of control | [5] 100 % of control | endpoint: mean survival time, dose: 400.0 mg/kg/injection, schedule: Q01DX001 (ip), vehicle: saline 104 % of control

O=N/C=C/C(=N/Nc1ccc(C(=O)O)cc1)[N+](=O)[O-]
inactive: [6] 96 % of control | [7] 96 % of control | endpoint: mean survival time, dose: 400.0 mg/kg/injection, schedule: Q04DX003 (ip), vehicle: saline 90 % of control

COS(=O)(=O)CC(O)(c1ccccc1)c1ccccc1
inactive: endpoint: mean survival time, dose: 75.0 mg/kg/injection, schedule: Q01DX009 (ip), vehicle: saline 102 % of control | endpoint: mean survival time, dose: 75.0 mg/kg/injection, schedule: Q04DX003 (ip), vehicle: saline 97 % of control | endpoint: mean survival time, dose: 150.0 mg/kg/injection, schedule: Q01DX009 (ip), vehicle: saline 100 % of control | endpoint: mean survival time, dose: 150.0 mg/kg/injection, schedule: Q04DX003 (ip), vehicle: saline 95 % of control | endpoint: mean survival time, dose: 300.0 mg/kg/injection, schedule: Q01DX009 (ip), vehicle: saline 100 % of control | endpoint: mean survival time, dose: 300.0 mg/kg/injection, schedule: Q04DX003 (ip), vehicle: saline 95 % of control

NC(=O)n1ccnc1
inactive: endpoint: mean survival time, dose: 50.0 mg/kg/injection, schedule: Q01DX001 (ip), vehicle: saline 96 % of control | [2] 98 % of control | [4] 108 % of control

CCCCCCCCOc1ccc(/C=N\N=C\c2ccc(OCCCCCCCC)cc2)cc1
inactive: [8] 94 % of control | [9] 94 % of control | [10] 94 % of control

CN1CCC(O)(c2ccccc2C2=NC(C)(C)CO2)CC1
inactive: endpoint: mean survival time, dose: 50.0 mg/kg/injection, schedule: Q04DX002 (ip), vehicle: saline with Tween-80 96 % of control | [11] 103 % of control | endpoint: mean survival time, dose: 100.0 mg/kg/injection, schedule: Q04DX002 (ip), vehicle: saline with Tween-80 101 % of control | [12] 102 % of control | endpoint: mean survival time, dose: 200.0 mg/kg/injection, schedule: Q04DX002 (ip), vehicle: saline with Tween-80 108 % of control

CN(C)/C=C(\C#N)C=O
inactive: endpoint: mean survival time, dose: 18.75 mg/kg/injection, schedule: Q01DX009 (ip), vehicle: saline with Tween-80 95 % of control | endpoint: mean survival time, dose: 37.5 mg/kg/injection, schedule: Q01DX009 (ip), vehicle: saline with Tween-80 101 % of control | endpoint: mean survival time, dose: 75.0 mg/kg/injection, schedule: Q01DX009 (ip), vehicle: saline with Tween-80 101 % of control | endpoint: mean survival time, dose: 75.0 mg/kg/injection, schedule: Q04DX003 (ip), vehicle: saline with Tween-80 87 % of control

[CH3][Sb]([CH3])([CH3])([O]C(=O)CBr)[O]C(=O)CBr
inactive: endpoint: mean survival time, dose: 12.5 mg/kg/injection, schedule: Q01DX009 (ip), vehicle: saline with Tween-80 102 % of control | endpoint: mean survival time, dose: 25.0 mg/kg/injection, schedule: Q01DX009 (ip), vehicle: saline with Tween-80 100 % of control | [1] 96 % of control

CC(C)(CNC1CCCCC1)OC(=O)c1ccccc1
inactive: endpoint: mean survival time, dose: 75.0 mg/kg/injection, schedule: Q01DX001 (ip), vehicle: saline 105 % of control | endpoint: mean survival time, dose: 150.0 mg/kg/injection, schedule: Q01DX001 (ip), vehicle: saline 100 % of control

O=c1[nH]cnc2c1nc(NCc1ccccc1)n2C1OC(CO)C(O)C1O (stereo unspecified)
inactive: endpoint: mean survival time, dose: 12.5 mg/kg/injection, schedule: Q01DX005 (ip), vehicle: distilled water + Tween-80 98 % of control | endpoint: mean survival time, dose: 25.0 mg/kg/injection, schedule: Q01DX005 (ip), vehicle: distilled water + Tween-80 96 % of control | endpoint: mean survival time, dose: 50.0 mg/kg/injection, schedule: Q01DX005 (ip), vehicle: distilled water + Tween-80 96 % of control | endpoint: mean survival time, dose: 100.0 mg/kg/injection, schedule: Q01DX005 (ip), vehicle: distilled water + Tween-80 101 % of control | endpoint: mean survival time, dose: 150.0 mg/kg/injection, schedule: Q01DX005 (ip), vehicle: distilled water + Tween-80 98 % of control

O=C(/C=C/c1ccccc1)Cc1ccccc1
inactive: [3] 93 % of control | [8] 92 % of control | [5] 98 % of control | [9] 93 % of control | [13] 88 % of control | [10] 93 % of control

OC(c1ccccc1)(c1ccccc1)c1ccccc1
inactive: [8] 101 % of control | [9] 98 % of control | [10] 98 % of control

O=S(c1ccc(O)cc1)c1ccc(O)cc1
inactive: [1] 90 % of control | [3] 94 % of control

[Cl][Pt+2][Cl].[NH-]C1CCC1[NH-] (stereo unspecified)
inactive: endpoint: median survival time, dose: 2.5 mg/kg/injection, schedule: Q04DX003 (ip), vehicle: Klucel (hydroxypropylcellulose) (HPC) 111 % of control
active: endpoint: median survival time, dose: 10.0 mg/kg/injection, schedule: Q04DX003 (ip), vehicle: Klucel (hydroxypropylcellulose) (HPC) 156 % of control and 158 % of control | endpoint: median survival time, dose: 20.0 mg/kg/injection, schedule: Q04DX003 (ip), vehicle: Klucel (hydroxypropylcellulose) (HPC) 177 % of control

O=C1CSC(=S)N1/N=C/c1ccc(Cl)s1
inactive: endpoint: mean survival time, dose: 75.0 mg/kg/injection, schedule: Q01DX001 (ip), vehicle: other 96 % of control

CN(Cc1cnc2nc(N)nc(N)c2n1)c1ccc(C(=O)NC(CCC(=O)OC(C)(C)C)C(=O)OC(C)(C)C)cc1 (stereo unspecified)
inactive: endpoint: mean survival time, dose: 1.56 mg/kg/injection, schedule: Q01DX009 (ip), vehicle: saline with Tween-80 112 % of control | endpoint: mean survival time, dose: 3.12 mg/kg/injection, schedule: Q01DX009 (ip), vehicle: saline with Tween-80 121 % of control | endpoint: mean survival time, dose: 4.5 mg/kg/injection, schedule: Q01DX009 (ip), vehicle: saline with Tween-80 111 % of control

COC1CC(N)C(O)C(C)O1 (stereo unspecified)
inactive: endpoint: mean survival time, dose: 12.5 mg/kg/injection, schedule: Q01DX009 (ip), vehicle: water 103 % of control | endpoint: mean survival time, dose: 25.0 mg/kg/injection, schedule: Q01DX009 (ip), vehicle: water 101 % of control | endpoint: mean survival time, dose: 50.0 mg/kg/injection, schedule: Q01DX009 (ip), vehicle: water 107 % of control | endpoint: mean survival time, dose: 100.0 mg/kg/injection, schedule: Q01DX009 (ip), vehicle: water 105 % of control | endpoint: mean survival time, dose: 200.0 mg/kg/injection, schedule: Q01DX009 (ip), vehicle: water 92 % of control

O=[N+]([O-])c1ccc(/C=C/c2ccccc2)cc1
inactive: [3] 104 % of control | [8] 102 % of control | [5] 100 % of control | [9] 104 % of control | [13] 98 % of control | [10] 96 % of control

O=[N+]([O-])c1ccc2nsnc2c1
inactive: [11] 103 % of control | [3] 103 % of control | [12] 106 % of control | [5] 114 % of control | endpoint: mean survival time, dose: 400.0 mg/kg/injection, schedule: Q01DX001 (ip), vehicle: saline with Tween-80 107 % of control

Cc1ccc(CNc2ccccc2)cc1
inactive: endpoint: mean survival time, dose: 12.5 mg/kg/injection, schedule: Q01DX009 (ip), vehicle: other 103 % of control | endpoint: mean survival time, dose: 25.0 mg/kg/injection, schedule: Q01DX009 (ip), vehicle: other 108 % of control | endpoint: mean survival time, dose: 50.0 mg/kg/injection, schedule: Q01DX009 (ip), vehicle: other 96 % of control | endpoint: mean survival time, dose: 100.0 mg/kg/injection, schedule: Q04DX003 (ip), vehicle: other 97 % of control | endpoint: mean survival time, dose: 200.0 mg/kg/injection, schedule: Q04DX003 (ip), vehicle: other 89 % of control and 102 % of control | endpoint: mean survival time, dose: 400.0 mg/kg/injection, schedule: Q04DX003 (ip), vehicle: other 88 % of control and 96 % of control

NCc1cn(C2OC(CO)C(O)C2O)c2nc[nH]c(=O)c12 (stereo unspecified)
inactive: endpoint: mean survival time, dose: 25.0 mg/kg/injection, schedule: Q01DX009 (ip), vehicle: distilled water + Tween-80 103 % of control | endpoint: mean survival time, dose: 50.0 mg/kg/injection, schedule: Q01DX009 (ip), vehicle: distilled water + Tween-80 103 % of control | endpoint: mean survival time, dose: 100.0 mg/kg/injection, schedule: Q01DX009 (ip), vehicle: distilled water + Tween-80 101 % of control | endpoint: mean survival time, dose: 200.0 mg/kg/injection, schedule: Q01DX009 (ip), vehicle: distilled water + Tween-80 98 % of control | endpoint: mean survival time, dose: 400.0 mg/kg/injection, schedule: Q01DX009 (ip), vehicle: distilled water + Tween-80 115 % of control

CC(=O)OCC(Br)C(Br)COC(C)=O (stereo unspecified)
inactive: [8] 100 % of control | [9] 100 % of control | [10] 97 % of control

NNC(=O)C1CC2CCC1C2 (stereo unspecified)
inactive: endpoint: mean survival time, dose: 50.0 mg/kg/injection, schedule: Q01DX009 (ip), vehicle: saline 107 % of control | endpoint: mean survival time, dose: 100.0 mg/kg/injection, schedule: Q01DX009 (ip), vehicle: saline 109 % of control | [6] 97 % of control | endpoint: mean survival time, dose: 200.0 mg/kg/injection, schedule: Q01DX009 (ip), vehicle: saline 105 % of control | [7] 114 % of control

COC(=O)/C(C#N)=C\c1ccccc1
inactive: [1] 95 % of control | [3] 95 % of control | [5] 92 % of control
